Test results taken from ChEMBL document CHEMBL1154493, “Oxidative inactivation of protein tyrosine phosphatase 1B by organic hydroperoxides” (Bioorg Med Chem Lett, 2008).
Active and inactive are the calls of the source. No cut-off for these calls is given here.

What was measured:
[1] = target: T1, Tyrosine-protein phosphatase non-receptor type 1 (Homo sapiens) (UniProt P18031); experiment: Inactivation of PTP1B at 150 nM
T1 sequence (whole entry): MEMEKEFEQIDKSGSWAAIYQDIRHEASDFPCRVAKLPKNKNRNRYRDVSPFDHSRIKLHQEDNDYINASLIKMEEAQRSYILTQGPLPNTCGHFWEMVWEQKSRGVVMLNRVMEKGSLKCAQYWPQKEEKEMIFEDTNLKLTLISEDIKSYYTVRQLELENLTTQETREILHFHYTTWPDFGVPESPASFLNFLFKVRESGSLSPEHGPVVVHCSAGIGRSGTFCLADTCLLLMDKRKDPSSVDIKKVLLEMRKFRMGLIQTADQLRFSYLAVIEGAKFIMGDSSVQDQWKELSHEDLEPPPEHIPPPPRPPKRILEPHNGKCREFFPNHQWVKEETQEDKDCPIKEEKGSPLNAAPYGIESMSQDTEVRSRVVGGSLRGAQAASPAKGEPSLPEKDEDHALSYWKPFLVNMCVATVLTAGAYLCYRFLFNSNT

[2] = target: T1, Tyrosine-protein phosphatase non-receptor type 1 (Homo sapiens); experiment: Inactivation of PTP1B at 15 uM after 15 sec in presence of glutathione
[3] = target: T2, Tyrosine-protein phosphatase non-receptor type 1 (Homo sapiens, UniProt P18031); experiment: Inhibition of PTP1B
T2 sequence (P18031 whole entry): T1 sequence (whole entry)

[4] = target: T1, Tyrosine-protein phosphatase non-receptor type 1 (Homo sapiens); experiment: Inactivation of PTP1B at 15 uM after 15 sec
[5] = target: T1, Tyrosine-protein phosphatase non-receptor type 1 (Homo sapiens); experiment: Inactivation of PTP1B at 15 uM after 15 sec in presence of phosphate ion
[6] = target: T1, Tyrosine-protein phosphatase non-receptor type 1 (Homo sapiens); experiment: Inactivation of PTP1B assessed as return of enzyme activity at 5 uM after 10 mins in presence of dithiothreitol
[7] = target: T1, Tyrosine-protein phosphatase non-receptor type 1 (Homo sapiens); experiment: Inactivation of PTP1B assessed as return of enzyme activity at 800 nM for 10 mins in presence of dithiothreitol

For O=C(O)c1ccccc1C(=O)OO, the Activity [1] was “Active”.
In the case of O=C(OO)c1cccc(Cl)c1, the Activity [1] is reported as “Active”.
With CC(=O)OO [ETHANEPEROXOIC ACID] the Activity [2] was 29%, the Ki [3] was 17 mM and the Activity [4] was 88%. The Activity [5] was 49%, the Activity [6] was 10% and the Activity [7] was 73%.
